How the values were obtained:
[1] = system: A549 cells; assay: Proliferation Assay (A549 cell viability, Cell Titer Fluor); assay type: cell-based; details: Homo sapiens, 72 hours
Procedure, shortened: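 A549 cells in RPMI 1640 with 10% dialyzed FBS were seeded at 1000 cells/well, grown 24 h, then exposed to compound (0.5% DMSO final) for 72 h at 37 °C, 5% CO2. Viability was read by Cell Titer Fluor fluorescence; EC50 from four-parameter logistic fit.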

[2] = molecular target: T1, purified recombinant human GAC (GLS1) (Homo sapiens, UniProt O94925); assay: GLS1 Enzymatic Activity Assay (dual-coupled enzymatic assay); assay type: biochemical
T1 sequence (O94925 55-598 isoform O94925-3 limits assumed): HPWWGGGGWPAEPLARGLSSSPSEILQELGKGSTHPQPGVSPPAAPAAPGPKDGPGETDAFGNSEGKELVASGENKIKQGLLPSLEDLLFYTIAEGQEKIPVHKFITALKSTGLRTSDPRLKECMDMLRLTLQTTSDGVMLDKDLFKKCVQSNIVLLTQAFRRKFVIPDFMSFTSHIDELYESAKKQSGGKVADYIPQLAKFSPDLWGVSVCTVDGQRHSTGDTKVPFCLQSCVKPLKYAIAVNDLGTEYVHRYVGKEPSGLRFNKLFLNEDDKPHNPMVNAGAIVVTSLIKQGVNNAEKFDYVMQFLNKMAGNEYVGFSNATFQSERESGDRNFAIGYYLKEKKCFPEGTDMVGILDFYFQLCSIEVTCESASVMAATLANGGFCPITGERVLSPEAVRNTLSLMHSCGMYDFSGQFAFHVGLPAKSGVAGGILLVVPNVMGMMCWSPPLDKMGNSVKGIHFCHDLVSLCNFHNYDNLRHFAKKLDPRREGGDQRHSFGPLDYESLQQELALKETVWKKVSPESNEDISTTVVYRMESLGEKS
Procedure, shortened: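 In this coupled fluorometric format, phosphate-activated GAC (2 nM, 50 mM phosphate) is pre-exposed to compound for 10 min before 1 mM glutamine addition. Product is tracked as resorufin (530/590 nm) over time or at 20 min, and potency is derived by logistic fitting.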

| SMILES | EC50 [1] | IC50 [2] |
| --- | --- | --- |
| COCCOC(=O)N1CC(c2cc3cc(CCCCn4cc(C(=O)NCc5cc(OC(F)(F)F)ccc5F)nn4)nnc3[nH]2)C1 [Example 237, 2-methoxyethyl 3-(3-{4-[4-({[2-fluoro-5-(trifluoromethoxy)phenyl]methyl}carbamoyl)-1H-1,2,3-triazol-1-yl]butyl}-7H-pyrrolo[2,3-c]pyridazin-6-yl)azetidine-1-carboxylate] | 100 to 500 nM | < 100 nM |
| O=C(NCc1cccc(C(F)(F)F)n1)c1cn(CCCCc2cc3c(C4CC4)c(C4CC4)[nH]c3nn2)nn1 [Example 211, 1-(4-{5,6-dicyclopropyl-7H-pyrrolo[2,3-c]pyridazin-3-yl}butyl)-N-{[6-(trifluoromethyl)pyridin-2-yl]methyl}-1H-1,2,3-triazole-4-carboxamide] | 100 to 500 nM | < 100 nM |
| Cc1cncc(CNC(=O)c2cn(CCCCc3cc4cc(C5CC5)[nH]c4nn3)nn2)c1 [Example 46, 1-(4-{6-cyclopropyl-7H-pyrrolo[2,3-c]pyridazin-3-yl}butyl)-N-[(5-methylpyridin-3-yl)methyl]-1H-1,2,3-triazole-4-carboxamide] | 500 to 5000 nM | < 100 nM |
| O=C(NCc1cccc(OC(F)(F)F)c1)c1cn(CCCCc2cc3cc(-c4ccccc4F)[nH]c3nn2)nn1 [Example 204, 1-{4-[6-(2-fluorophenyl)-7H-pyrrolo[2,3-c]pyridazin-3-yl]butyl}-N-{[3-(trifluoromethoxy)phenyl]methyl}-1H-1,2,3-triazole-4-carboxamide] | 500 to 5000 nM | < 100 nM |
| O=C(NCc1cccc(OC(F)(F)F)c1)c1cn(CCCCc2cc3c(C4CC4)c(-c4ccccn4)[nH]c3nn2)nn1 [Example 177, 1-(4-(5-cyclopropyl-6-(pyridin-2-yl)-7H-pyrrolo[2,3-c]pyridazin-3-yl)butyl)-N-(3-(trifluoromethoxy)benzyl)-1H-1,2,3-triazole-4-carboxamide 2,2,2-trifluoroacetate] | 500 to 5000 nM | < 100 nM |
| CC(C)(C)OC(=O)N1CCC(c2cc3cc(CCCCn4cc(C(=O)NCc5cc(OC(F)(F)F)ccc5F)nn4)nnc3[nH]2)CC1 [Example 150, tert-butyl 4-(3-{4-[4-({[2-fluoro-5-(trifluoromethoxy)phenyl]methyl}carbamoyl)-1H-1,2,3-triazol-1-yl]butyl}-7H-pyrrolo[2,3-c]pyridazin-6-yl)piperidine-1-carboxylate] | < 100 nM | < 100 nM |
| Cn1nccc1-c1c(C2CC2)[nH]c2nnc(CCCCn3cc(C(=O)NCc4ccccn4)nn3)cc12 [Example 135, 1-{4-[6-cyclopropyl-5-(1-methyl-1H-pyrazol-5-yl)-7H-pyrrolo[2,3-c]pyridazin-3-yl]butyl}-N-(pyridin-2-ylmethyl)-1H-1,2,3-triazole-4-carboxamide] | 500 to 5000 nM | < 100 nM |
| O=C(Nc1nnc(CCCCc2cc3cc(Cc4ccccc4)[nH]c3nn2)s1)[C@H](O)c1ccccc1 [Example 60, (2R)-N-[5-(4-(6-benzyl-7H-pyrrolo[2,3-c]pyridazin-3-yl}butyl)-1,3,4-thiadiazol-2-yl]-2-hydroxy-2-phenylacetamide] | 500 to 5000 nM | < 100 nM |
| O=C(NCCC(F)(F)F)c1nnc(CCCCc2cc3cc(Cc4ccccc4)[nH]c3nn2)s1 [Example 83, 5-(4-{6-benzyl-7H-pyrrolo[2,3-c]pyridazin-3-yl}butyl)-N-(3,3,3-trifluoropropyl)-1,3,4-thiadiazole-2-carboxamide] | > 5000 nM | 100 to 500 nM |
| CC(C)(O)c1cccc(CNC(=O)c2cn(CCCCc3cc4cc(C5CC5)[nH]c4nn3)nn2)n1 [Example 87, 1-(4-(6-cyclopropyl-7H-pyrrolo[2,3-c]pyridazin-3-yl)butyl)-N-((6-(2-hydroxypropan-2-yl)pyridin-2-yl)methyl)-1H-1,2,3-triazole-4-carboxamide] | 500 to 5000 nM | 100 to 500 nM |
| COc1ccc(CNC(=O)c2cn(CCCCc3cc4cc(C5CC5)[nH]c4nn3)nn2)cn1 [Example 42, 1-(4-{6-cyclopropyl-7H-pyrrolo[2,3-c]pyridazin-3-yl}butyl)-N-[(6-methoxypyridin-3-yl)methyl]-1H-1,2,3-triazole-4-carboxamide] | 500 to 5000 nM | < 100 nM |
| CC(C)(C)OC(=O)NCc1cccc(CNC(=O)c2cn(CCCCc3cc4cc(C5CC5)[nH]c4nn3)nn2)c1 [Example 93, tert-butyl N-{[3-({[1-(4-{6-cyclopropyl-7H-pyrrolo[2,3-c]pyridazin-3-yl}butyl)-1H-1,2,3-triazol-4-yl]formamido}methyl)phenyl]methyl}carbamate] | < 100 nM | < 100 nM |
| Cc1ccc(CNC(=O)c2cn(CCCCc3cc4cc(-c5cc(F)cc(F)c5)[nH]c4nn3)nn2)cn1 [Example 232, 1-{4-[6-(3,5-difluorophenyl)-7H-pyrrolo[2,3-c]pyridazin-3-yl]butyl}-N-[(6-methylpyridin-3-yl)methyl]-1H-1,2,3-triazole-4-carboxamide] | 100 to 500 nM | < 100 nM |

Other lines, results leading:

| EC50 [1] | IC50 [2] | SMILES |
| --- | --- | --- |
| 100 to 500 nM | < 100 nM | O=C(NCc1cc(C(F)(F)F)ccn1)c1cn(CCCCc2cc3c(C4CC4)c(C4CC4)[nH]c3nn2)nn1 [Example 210, 1-(4-{5,6-dicyclopropyl-7H-pyrrolo[2,3-c]pyridazin-3-yl}butyl)-N-{[4-(trifluoromethyl)pyridin-2-yl]methyl}-1H-1,2,3-triazole-4-carboxamide] |
| < 100 nM | < 100 nM | Cc1ccc(CNC(=O)c2cn(CCCCc3cc4cc(-c5ccccc5F)[nH]c4nn3)nn2)cn1 [Example 190, 1-{4-[6-(2-fluorophenyl)-7H-pyrrolo[2,3-c]pyridazin-3-yl]butyl}-N-[(6-methylpyridin-3-yl)methyl]-1H-1,2,3-triazole-4-carboxamide] |
| 100 to 500 nM | 100 to 500 nM | COCCNC(=O)c1nnc(CCCCc2cc3cc(Cc4ccccc4)[nH]c3nn2)s1 [Example 67, 5-(4-{6-benzyl-7H-pyrrolo[2,3-c]pyridazin-3-yl}butyl)-N-(2-methoxyethyl)-1,3,4-thiadiazole-2-carboxamide] |
| 500 to 5000 nM | < 100 nM | O=C(NCc1ccccn1)c1cn(CCCCc2cc3c(-c4ccncc4)c(C4CC4)[nH]c3nn2)nn1 [Example 113, 1-{4-[6-cyclopropyl-5-(pyridin-4-yl)-7H-pyrrolo[2,3-c]pyridazin-3-yl]butyl}-N-(pyridin-2-ylmethyl)-1H-1,2,3-triazole-4-carboxamide] |
| 500 to 5000 nM | 100 to 500 nM | O=C(NCc1ccncc1)c1nnc(CCCCc2cc3cc(Cc4ccccc4)[nH]c3nn2)s1 [Example 75, 5-(4-{6-benzyl-7H-pyrrolo[2,3-c]pyridazin-3-yl}butyl)-N-(pyridin-4-ylmethyl)-1,3,4-thiadiazole-2-carboxamide] |
| 100 to 500 nM | < 100 nM | O=C(NCc1cccc(OC(F)(F)F)c1)c1cn(CCCCc2cc3cc(C4CC4)[nH]c3nn2)nn1 [Example 32, 1-(4-{6-cyclopropyl-7H-pyrrolo[2,3-c]pyridazin-3-yl}butyl)-N-{[3-(trifluoromethoxy)phenyl]methyl}-1H-1,2,3-triazole-4-carboxamide] |
| < 100 nM | < 100 nM | O=C(NCc1cccc(OC(F)(F)F)c1)c1cn(CCCCc2cc3c(C4=CCOCC4)c(C4CC4)[nH]c3nn2)nn1 [Example 195, 1-{4-[6-cyclopropyl-5-(3,6-dihydro-2H-pyran-4-yl)-7H-pyrrolo[2,3-c]pyridazin-3-yl]butyl}-N-{[3-(trifluoromethoxy)phenyl]methyl}-1H-1,2,3-triazole-4-carboxamide] |

— patent US20160002248A1, “GLS1 INHIBITORS FOR TREATING DISEASE” (Board of Regents, The University of Texas System, priority 2014, published 2016)
